Data taken from a compilation of properties of binary mixtures (doi:10.1016/j.molliq.2017.07.014).

Assay: xn = mol fraction of the nth substance listed
Details: 101 kPa, x2 = 0

CN1CCCC1=O + CCCC[P+](C)(CCCC)CCCC.COS(=O)(=O)[O-]
Details | speed of sound [m/s] | viscosity [mPa·s]
293.15 K | 1570 | 1.9
298.15 K | 1566 | 1.66
303.15 K | 1552 | 1.49
308.15 K | 1527 | 1.38
313.15 K | 1518 | 1.3
318.15 K | 1497 | 1.21
323.15 K | 1491 | 1.15
